Source: the kinase profiling compilation of Christmann-Franck et al. (2016)

Tests used:
Assay in all cases: radiometric filter-binding kinase assay, Kinase HotSpot
Details in all cases: compound 0.5 µM; ATP 10 µM
[1] = target: NTRK2 (human) (UniProt Q16620)
[2] = target: CAMK1 (human) (UniProt Q14012)
[3] = target: STK17A (human) (UniProt Q9UEE5)
[4] = target: WNK3 (human) (UniProt Q9BYP7)
[5] = target: ERBB2 (human) (UniProt P04626)
[6] = target: IGF1R (human) (UniProt P08069)
[7] = target: PAK4 (human) (UniProt O96013)
[8] = target: FGFR3 (human) (UniProt P22607)
[9] = target: PIM2 (human) (UniProt Q9P1W9)
[10] = target: MAP4K5 (human) (UniProt Q9Y4K4)
[11] = target: PRKCI (human) (UniProt P41743)
[12] = target: CHUK (human) (UniProt O15111)
[13] = target: MAPK13 (human) (UniProt O15264)
[14] = target: NUAK1 (human) (UniProt O60285)
[15] = target: MAPK3 (human) (UniProt P27361)
[16] = target: PTK2 (human) (UniProt Q05397)
[17] = target: CDK5 CDK5R1 p25 (human) (UniProt Q00535+Q15078)
[18] = target: FYN (human) (UniProt P06241)
[19] = target: NTRK1 (human) (UniProt P04629)
[20] = target: TBK1 (human) (UniProt Q9UHD2)
[21] = target: AKT3 (human) (UniProt Q9Y243)
[22] = target: PLK1 (human) (UniProt P53350)
[23] = target: TYK2 JH1 catalytic (human) (UniProt P29597)
[24] = target: TSSK2 (human) (UniProt Q96PF2)
[25] = target: CSNK1E (human) (UniProt P49674)
[26] = target: RPS6KA1 KD1 KD2 (human) (UniProt Q15418)
[27] = target: NTRK3 (human) (UniProt Q16288)
[28] = target: MAPK11 (human) (UniProt Q15759)
[29] = target: RIPK2 (human) (UniProt O43353)
[30] = target: CLK3 (human) (UniProt P49761)
[31] = target: PRKCA (human) (UniProt P17252)
[32] = target: MARK4 (human) (UniProt Q96L34)
[33] = target: CDK9 CCNT1 (human) (UniProt P50750+O60563)
[34] = target: MAPK12 (human) (UniProt P53778)
[35] = target: HIPK2 (human) (UniProt Q9H2X6)
[36] = target: AKT2 (human) (UniProt P31751)
[37] = target: MAP3K10 (human) (UniProt Q02779)
[38] = target: PRKCH (human) (UniProt P24723)
[39] = target: CDC42BPA (human) (UniProt Q5VT25)
[40] = target: EPHA3 (human) (UniProt P29320)
[41] = target: PRKX (human) (UniProt P51817)
[42] = target: ADRBK1 (human) (UniProt P25098)

Chain of CDK5 CDK5R1 p25 (human) (Q00535 whole entry, looked up): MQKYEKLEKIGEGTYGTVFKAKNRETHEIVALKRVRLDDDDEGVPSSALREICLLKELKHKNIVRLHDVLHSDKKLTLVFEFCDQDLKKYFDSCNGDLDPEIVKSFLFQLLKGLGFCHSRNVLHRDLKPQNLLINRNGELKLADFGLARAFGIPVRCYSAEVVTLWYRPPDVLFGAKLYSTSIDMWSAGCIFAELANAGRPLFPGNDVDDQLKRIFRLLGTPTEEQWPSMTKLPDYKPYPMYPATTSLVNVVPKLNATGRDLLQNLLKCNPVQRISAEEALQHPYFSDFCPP
Chain of CDK5 CDK5R1 p25 (human) (Q15078 whole entry, looked up): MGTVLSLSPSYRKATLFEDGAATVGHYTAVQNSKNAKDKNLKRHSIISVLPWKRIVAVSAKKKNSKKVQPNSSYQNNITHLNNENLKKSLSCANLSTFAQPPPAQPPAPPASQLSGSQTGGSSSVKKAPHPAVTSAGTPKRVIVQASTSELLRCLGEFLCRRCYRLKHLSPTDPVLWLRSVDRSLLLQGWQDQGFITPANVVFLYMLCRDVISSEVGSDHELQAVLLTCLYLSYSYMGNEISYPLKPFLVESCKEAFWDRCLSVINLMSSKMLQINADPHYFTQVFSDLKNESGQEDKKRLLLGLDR
Chain of MAPK11 (human) (Q15759 whole entry, looked up): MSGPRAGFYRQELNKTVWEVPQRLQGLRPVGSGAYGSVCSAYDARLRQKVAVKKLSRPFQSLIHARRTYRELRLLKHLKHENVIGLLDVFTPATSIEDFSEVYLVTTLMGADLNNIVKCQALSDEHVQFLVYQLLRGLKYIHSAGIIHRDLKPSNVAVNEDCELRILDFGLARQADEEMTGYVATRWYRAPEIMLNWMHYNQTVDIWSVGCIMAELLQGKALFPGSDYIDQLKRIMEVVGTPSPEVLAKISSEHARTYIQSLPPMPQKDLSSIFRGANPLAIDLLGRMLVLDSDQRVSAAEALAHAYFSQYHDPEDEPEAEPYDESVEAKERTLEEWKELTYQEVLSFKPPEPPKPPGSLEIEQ
Chain of RIPK2 (human) (O43353 whole entry, looked up): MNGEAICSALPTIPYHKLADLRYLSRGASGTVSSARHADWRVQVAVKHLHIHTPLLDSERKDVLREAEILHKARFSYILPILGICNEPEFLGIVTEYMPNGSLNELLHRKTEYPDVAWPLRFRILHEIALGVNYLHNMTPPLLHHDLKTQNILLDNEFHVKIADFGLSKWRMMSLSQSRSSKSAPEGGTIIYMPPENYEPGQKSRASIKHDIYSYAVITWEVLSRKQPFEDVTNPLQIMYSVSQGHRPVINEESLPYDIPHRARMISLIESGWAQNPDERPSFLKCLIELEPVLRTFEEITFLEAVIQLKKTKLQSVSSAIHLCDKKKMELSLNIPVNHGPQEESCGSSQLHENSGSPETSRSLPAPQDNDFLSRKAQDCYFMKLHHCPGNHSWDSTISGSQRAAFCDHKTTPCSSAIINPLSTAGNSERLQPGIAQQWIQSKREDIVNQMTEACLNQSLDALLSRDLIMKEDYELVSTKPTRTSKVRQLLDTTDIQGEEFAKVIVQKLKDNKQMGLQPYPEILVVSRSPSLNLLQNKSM
Chain of WNK3 (human) (Q9BYP7 whole entry, looked up): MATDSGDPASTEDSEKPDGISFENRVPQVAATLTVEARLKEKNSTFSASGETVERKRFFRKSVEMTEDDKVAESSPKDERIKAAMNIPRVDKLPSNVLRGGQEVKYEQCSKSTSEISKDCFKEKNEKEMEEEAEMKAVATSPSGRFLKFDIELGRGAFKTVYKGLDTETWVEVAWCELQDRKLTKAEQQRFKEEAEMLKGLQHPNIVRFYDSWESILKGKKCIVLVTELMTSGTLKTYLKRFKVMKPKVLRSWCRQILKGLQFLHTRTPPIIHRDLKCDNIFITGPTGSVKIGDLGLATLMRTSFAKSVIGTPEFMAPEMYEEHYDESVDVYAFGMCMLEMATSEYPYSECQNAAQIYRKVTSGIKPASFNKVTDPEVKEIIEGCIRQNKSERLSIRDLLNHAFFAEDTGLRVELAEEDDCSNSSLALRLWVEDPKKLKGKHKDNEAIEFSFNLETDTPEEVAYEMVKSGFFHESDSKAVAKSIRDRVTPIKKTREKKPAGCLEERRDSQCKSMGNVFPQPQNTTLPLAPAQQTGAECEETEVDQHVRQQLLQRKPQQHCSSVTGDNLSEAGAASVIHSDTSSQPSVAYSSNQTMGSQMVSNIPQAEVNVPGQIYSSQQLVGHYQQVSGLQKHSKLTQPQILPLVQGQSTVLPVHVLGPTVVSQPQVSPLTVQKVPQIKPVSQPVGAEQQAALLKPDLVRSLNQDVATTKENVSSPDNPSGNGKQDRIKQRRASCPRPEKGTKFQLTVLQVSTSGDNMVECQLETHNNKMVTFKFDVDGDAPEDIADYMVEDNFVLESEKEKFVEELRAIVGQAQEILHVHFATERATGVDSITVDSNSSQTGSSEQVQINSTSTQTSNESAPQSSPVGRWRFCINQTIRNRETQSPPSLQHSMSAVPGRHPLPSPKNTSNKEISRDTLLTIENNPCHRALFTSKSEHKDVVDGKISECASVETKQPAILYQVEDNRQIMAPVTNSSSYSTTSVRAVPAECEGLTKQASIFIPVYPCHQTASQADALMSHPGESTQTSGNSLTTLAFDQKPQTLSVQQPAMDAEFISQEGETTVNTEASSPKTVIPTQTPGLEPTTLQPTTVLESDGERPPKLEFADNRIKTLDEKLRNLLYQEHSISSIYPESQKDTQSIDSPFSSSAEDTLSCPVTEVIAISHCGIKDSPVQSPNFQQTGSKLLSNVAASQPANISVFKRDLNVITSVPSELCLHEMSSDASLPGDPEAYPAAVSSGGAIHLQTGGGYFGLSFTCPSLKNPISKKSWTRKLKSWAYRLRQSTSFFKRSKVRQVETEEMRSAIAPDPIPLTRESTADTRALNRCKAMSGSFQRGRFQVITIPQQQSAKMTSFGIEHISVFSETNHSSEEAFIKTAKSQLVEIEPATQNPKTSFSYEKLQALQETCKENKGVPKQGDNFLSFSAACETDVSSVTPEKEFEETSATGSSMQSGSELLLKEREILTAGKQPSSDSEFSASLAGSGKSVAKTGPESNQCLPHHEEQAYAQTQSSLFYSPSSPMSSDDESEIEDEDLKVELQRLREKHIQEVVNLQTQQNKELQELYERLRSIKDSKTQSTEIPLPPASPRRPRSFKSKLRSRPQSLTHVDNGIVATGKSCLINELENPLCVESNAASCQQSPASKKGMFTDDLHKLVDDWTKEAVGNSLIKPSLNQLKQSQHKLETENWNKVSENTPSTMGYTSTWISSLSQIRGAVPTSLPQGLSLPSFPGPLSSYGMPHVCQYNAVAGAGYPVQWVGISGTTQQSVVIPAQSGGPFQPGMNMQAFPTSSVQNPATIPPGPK
Chain of MAPK13 (human) (O15264 whole entry, looked up): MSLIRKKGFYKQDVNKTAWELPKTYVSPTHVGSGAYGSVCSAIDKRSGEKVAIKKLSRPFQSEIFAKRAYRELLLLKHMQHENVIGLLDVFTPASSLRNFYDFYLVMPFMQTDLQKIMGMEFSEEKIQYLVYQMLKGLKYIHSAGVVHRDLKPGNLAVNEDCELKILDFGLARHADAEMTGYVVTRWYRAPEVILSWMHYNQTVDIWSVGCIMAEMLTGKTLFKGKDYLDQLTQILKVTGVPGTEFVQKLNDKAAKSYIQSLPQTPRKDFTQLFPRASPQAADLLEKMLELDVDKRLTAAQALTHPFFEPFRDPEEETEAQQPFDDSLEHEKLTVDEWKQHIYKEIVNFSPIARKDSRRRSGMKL
Chain of MAPK3 (human) (P27361 whole entry, looked up): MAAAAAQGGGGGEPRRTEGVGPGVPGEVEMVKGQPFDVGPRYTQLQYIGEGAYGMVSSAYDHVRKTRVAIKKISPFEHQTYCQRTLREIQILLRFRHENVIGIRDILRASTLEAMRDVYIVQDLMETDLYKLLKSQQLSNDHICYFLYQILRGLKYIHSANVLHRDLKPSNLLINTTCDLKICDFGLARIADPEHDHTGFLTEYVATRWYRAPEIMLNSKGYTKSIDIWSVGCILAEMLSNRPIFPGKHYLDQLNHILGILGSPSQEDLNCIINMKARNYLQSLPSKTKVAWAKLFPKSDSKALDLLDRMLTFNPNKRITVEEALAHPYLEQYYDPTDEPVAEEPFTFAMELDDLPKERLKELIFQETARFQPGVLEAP
Chain of AKT3 (human) (Q9Y243 whole entry, looked up): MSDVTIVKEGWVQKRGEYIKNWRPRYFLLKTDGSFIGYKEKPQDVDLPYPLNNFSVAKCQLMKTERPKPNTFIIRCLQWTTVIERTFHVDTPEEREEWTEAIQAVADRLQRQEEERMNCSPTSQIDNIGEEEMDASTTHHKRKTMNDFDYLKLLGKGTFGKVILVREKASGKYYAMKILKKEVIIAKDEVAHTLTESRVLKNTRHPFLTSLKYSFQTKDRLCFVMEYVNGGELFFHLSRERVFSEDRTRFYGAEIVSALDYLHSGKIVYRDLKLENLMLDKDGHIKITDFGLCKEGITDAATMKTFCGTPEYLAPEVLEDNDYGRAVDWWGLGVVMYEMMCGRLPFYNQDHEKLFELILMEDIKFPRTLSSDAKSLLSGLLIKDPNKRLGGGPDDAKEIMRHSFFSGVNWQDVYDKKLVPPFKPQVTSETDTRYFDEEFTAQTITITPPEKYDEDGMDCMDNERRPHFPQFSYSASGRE
Chain of CSNK1E (human) (P49674 whole entry, looked up): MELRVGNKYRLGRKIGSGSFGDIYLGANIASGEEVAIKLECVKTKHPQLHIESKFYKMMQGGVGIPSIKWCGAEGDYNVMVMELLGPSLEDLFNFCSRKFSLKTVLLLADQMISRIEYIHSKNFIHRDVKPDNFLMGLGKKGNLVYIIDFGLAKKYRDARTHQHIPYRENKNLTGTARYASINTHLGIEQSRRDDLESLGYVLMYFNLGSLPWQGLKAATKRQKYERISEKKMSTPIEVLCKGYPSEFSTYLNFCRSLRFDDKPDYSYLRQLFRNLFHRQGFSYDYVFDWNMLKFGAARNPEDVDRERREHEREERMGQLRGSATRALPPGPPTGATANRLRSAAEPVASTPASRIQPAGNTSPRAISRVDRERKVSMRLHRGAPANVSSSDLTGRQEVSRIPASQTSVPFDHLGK

SMILES: Nc1n[nH]c2nnc(-c3c(-c4ccccc4)nn4ccccc34)cc12
- residual activity [1]: 89.7%
- residual activity [2]: 102%
- residual activity [3]: 99.9%
- residual activity [4]: 101%
- residual activity [5]: 105%
- residual activity [6]: 102%
- residual activity [7]: 101%
- residual activity [8]: 102%
- residual activity [9]: 91.7%
- residual activity [10]: 50.3%
- residual activity [11]: 98.3%
- residual activity [12]: 97.5%
- residual activity [13]: 101%
- residual activity [14]: 92.5%
- residual activity [15]: 65.8%
- residual activity [16]: 99.2%
- residual activity [17]: 101%
- residual activity [18]: 95%
- residual activity [19]: 101%
- residual activity [20]: 100%
- residual activity [21]: 97.5%
- residual activity [22]: 98.1%
- residual activity [23]: 104%
- residual activity [24]: 104%
- residual activity [25]: 80.9%
- residual activity [26]: 95.1%
- residual activity [27]: 76.6%
- residual activity [28]: 90%
- residual activity [29]: 87%
- residual activity [30]: 94.9%
- residual activity [31]: 87.2%
- residual activity [32]: 105%
- residual activity [33]: 97.3%
- residual activity [34]: 104%
- residual activity [35]: 104%
- residual activity [36]: 97.5%
- residual activity [37]: 90.7%
- residual activity [38]: 77.2%
- residual activity [39]: 89.7%
- residual activity [40]: 97.8%
- residual activity [41]: 101%
- residual activity [42]: 95%

SMILES: Nc1nc(Nc2ccc(S(N)(=O)=O)cc2)nn1C(=O)c1c(F)cccc1F
- residual activity [1]: 42.8%
- residual activity [2]: 90.4%
- residual activity [3]: 83.9%
- residual activity [4]: 98.3%
- residual activity [5]: 91.1%
- residual activity [6]: 86.9%
- residual activity [7]: 90%
- residual activity [8]: 46.4%
- residual activity [9]: 113%
- residual activity [10]: 45.3%
- residual activity [11]: 87.6%
- residual activity [12]: 99%
- residual activity [13]: 94.8%
- residual activity [14]: 3.29%
- residual activity [15]: 108%
- residual activity [16]: 95.5%
- residual activity [17]: 2.54%
- residual activity [18]: 78.6%
- residual activity [19]: 98.8%
- residual activity [20]: 80%
- residual activity [21]: 95%
- residual activity [22]: 97.5%
- residual activity [23]: 0.878%
- residual activity [24]: 103%
- residual activity [25]: 96.9%
- residual activity [26]: 42.1%
- residual activity [27]: 37.6%
- residual activity [28]: 94%
- residual activity [29]: 77.8%
- residual activity [30]: 65.8%
- residual activity [31]: 55.7%
- residual activity [32]: 48%
- residual activity [33]: 27.6%
- residual activity [34]: 89.9%
- residual activity [35]: 72.8%
- residual activity [36]: 107%
- residual activity [37]: 77.8%
- residual activity [38]: 100%
- residual activity [39]: 97.5%
- residual activity [40]: 107%
- residual activity [41]: 89%
- residual activity [42]: 97.3%

SMILES: CCN1/C(=C/C(C)=O)Sc2ccc(OC)cc21
- residual activity [1]: 104%
- residual activity [2]: 88.5%
- residual activity [3]: 99.3%
- residual activity [4]: 88.1%
- residual activity [5]: 99.9%
- residual activity [6]: 98.3%
- residual activity [7]: 108%
- residual activity [8]: 99.1%
- residual activity [9]: 102%
- residual activity [10]: 92.3%
- residual activity [11]: 97.8%
- residual activity [12]: 89.9%
- residual activity [13]: 105%
- residual activity [14]: 93.4%
- residual activity [15]: 105%
- residual activity [16]: 108%
- residual activity [17]: 87.9%
- residual activity [18]: 99.1%
- residual activity [19]: 85.7%
- residual activity [20]: 94.5%
- residual activity [21]: 96.1%
- residual activity [22]: 97%
- residual activity [23]: 113%
- residual activity [24]: 106%
- residual activity [25]: 60.1%
- residual activity [26]: 94%
- residual activity [27]: 91.9%
- residual activity [28]: 84.5%
- residual activity [29]: 86.3%
- residual activity [30]: 95%
- residual activity [31]: 68.7%
- residual activity [32]: 102%
- residual activity [33]: 101%
- residual activity [34]: 99.8%
- residual activity [35]: 100%
- residual activity [36]: 95.2%
- residual activity [37]: 95%
- residual activity [38]: 88.1%
- residual activity [39]: 85%
- residual activity [40]: 89.9%
- residual activity [41]: 96.6%
- residual activity [42]: 95.5%

SMILES: NC(=O)c1ccc(N(C(N)=O)c2c(F)cccc2F)nc1-c1ccc(F)cc1F
- residual activity [1]: 102%
- residual activity [2]: 98.1%
- residual activity [3]: 100%
- residual activity [4]: 96.6%
- residual activity [5]: 106%
- residual activity [6]: 92.3%
- residual activity [7]: 92.6%
- residual activity [8]: 90.2%
- residual activity [9]: 98.3%
- residual activity [10]: 98.3%
- residual activity [11]: 99.1%
- residual activity [12]: 100%
- residual activity [13]: 94%
- residual activity [14]: 108%
- residual activity [15]: 95.2%
- residual activity [16]: 98.9%
- residual activity [17]: 95.9%
- residual activity [18]: 110%
- residual activity [19]: 96.3%
- residual activity [20]: 106%
- residual activity [21]: 86.2%
- residual activity [22]: 95.1%
- residual activity [23]: 93.5%
- residual activity [24]: 88.6%
- residual activity [25]: 98.2%
- residual activity [26]: 109%
- residual activity [27]: 95.9%
- residual activity [28]: 22.3%
- residual activity [29]: 101%
- residual activity [30]: 112%
- residual activity [31]: 86%
- residual activity [32]: 102%
- residual activity [33]: 96.7%
- residual activity [34]: 92.1%
- residual activity [35]: 100%
- residual activity [36]: 118%
- residual activity [37]: 104%
- residual activity [38]: 112%
- residual activity [39]: 93.8%
- residual activity [40]: 97%
- residual activity [41]: 123%
- residual activity [42]: 99%
